Experimental data published in paper PMC11672801, “Synthesis of Temporin-SHa Retro Analogs with Lysine Addition/Substitution and Antibiotic Conjugation to Enhance Antibacterial, Antifungal, and Anticancer Activities” (Antibiotics, 2024).
Converted amounts (≈) assume the structure as drawn. Where two headings read alike, the source gives them in different places. Where a SMILES comes first, the peptide text is derived from it. [ ]: non-standard residue; d: D form. The star is where a group is joined. Levofloxacinoyl = C[C@H]1COc2c(N3CCN(C)CC3)c(F)cc3c(=O)c(C(=O)*)cn1c23; βAla = NCCC(=O)O

Assays:
B. subtilis (ATCC 23857) = assay: Antibacterial broth microdilution MIC assay; format: cell-based, Bacillus subtilis; conditions: >99% inhibition of growth, MH broth, 20-22 h, 37 °C
Description: (§1) The antibacterial activity of peptide analogs was tested against different bacterial strains, i.e., Salmonella enterica subsp. enterica serotype Typhimurium or Salmonella typhi (ATCC 14028), Staphylococcus aureus (NCTC 13277), Bacillus subtilis (ATCC 23857), Escherichia coli (ATCC 25922), and Pseudomonas aeruginosa (ATCC 10145). These strains were obtained from the microbial bank of Dr. Panjwani Center for Molecular Medicine and Drug research (PCMD), International Center for Chemical and Biological Sciences (ICCBS), University of Karachi. Colonies of these bacterial strains were grown in respective agar media, then inoculated in Mueller Hinton (MH) broth (Oxoid, UK) and incubated at 37 °C overnight. The peptide solutions were first diluted 1 in 100 (from the stock solution at 20 mM) and then further two-fold dilution in MH broth in a sterile 96-well plate was performed, resulting in 100 µL of broth containing increasing concentrations of analogs. Bacteria in their exponential growth phase were diluted in MH broth, and 100 µL of this suspension was added in each well. […] Then, these plates were incubated at 37 °C for 20–22 h. MIC (Minimum Inhibitory Concentration) values were determined as the concentrations of peptides causing >99% inhibition of bacterial growth.

E. coli (ATCC 25922) = assay: Antibacterial broth microdilution MIC assay; format: cell-based, Escherichia coli; conditions: >99% inhibition of growth, MH broth, 20-22 h, 37 °C
Description: as §1

[1] = system: P. aeruginosa (ATCC 10145); assay: Antibacterial broth microdilution MIC assay; format: cell-based, Pseudomonas aeruginosa; conditions: >99% inhibition of growth, MH broth, 20-22 h, 37 °C
Description: as §1

C. albicans (ATCC 36082) = assay: microbe, parasite or virus in culture
Description: Candida albicans (ATCC 36082) was cultured on Sabourad Dextrose Agar (SDA). A single colony was inoculated in Sabouraud Dextrose Broth (SDB) medium and grown overnight at 37 °C while shaking. The next day, the susceptibility of C. albicans was tested using a broth microdilution assay. Peptide analogs were diluted in SDB media by two-fold dilution, resulting in 100 µL of medium containing increasing concentrations of analogs. The overnight culture (turbidity at OD600 = 1) was 1000× diluted in SDB. Then 100 µL of this suspension was added to each well, resulting in a final 200 µL suspension containing 2–4 × 10^5 CFU/mL. The plate was incubated at 37 °C for 24 h. The next day, MIC (Minimum Inhibitory Concentration) values were determined as the concentrations of peptides causing > 99% inhibition of yeast growth.

[2] = system: Human breast cancer (MCF-7) cells; assay: cells; format: cell-based
Description: (§2) Human breast cancer (MCF-7) and human cervical cancer (HeLa) cells were obtained from the cell culture bank of PCMD in ICCBS, University of Karachi. These cells were maintained in Dulbecco’s Modified Eagle Medium (DMEM), supplemented with 10% fetal bovine serum, and incubated at 37 °C and 5% CO2. The antiproliferative activity of the samples was determined by a MTT assay. Briefly, the cells were washed with PBS and trypsinized. After determination of the cell number using Malassez cell counting, 100 µL of the cell suspension were seeded in a 96-well plate at the density of 6000 cells/well and incubated at 37 °C and 5% CO2. After 24 h, the cells were treated with increasing concentrations of analogs. The next day, media was removed and 200 µL of MTT dye (0.5 mg/mL) was added in each well and incubated for 3 h at 37 °C in 5% CO2 incubator. Then, the media was removed and 100 µL of DMSO was added to solubilize formazan crystals. After one minute of shaking, the absorbance was recorded at 540 nm in microplate reader (Multiskan GO, ThermoScientific, Waltham, MA, USA). Finally, the percent inhibition of proliferation was calculated using the following formula: % inhibition of proliferation=O.D of treated well−O.D of media control/O.D of untreated control−O.D of media control×100

[3] = system: human cervical cancer (HeLa) cells; assay: cells; format: cell-based; conditions: 24 h
Description: as §2

[4] = system: human red blood cells (RBC); assay: Hemolytic assay; format: cell-based
Description: For the hemolytic assay, fresh human blood (2 mL) was obtained from a healthy donor in EDTA tube while following the protocol of approval from the Independent Ethics Committee of ICCBS (approval number ICCBS/IEC-047-HB-2019/Protocol/1.0). The blood was centrifuged and upper supernatant plasma was removed. The cell pellets were washed with sterile PBS three times. The washed blood cells were then diluted 25 times to make 4% concentration of the initial blood cells. Red blood cells (500 µL) were treated with increasing concentrations of analogs, with triton X-100 at 0.1% being used as positive control giving 100% hemolysis. After 1 h of incubation at 37 °C, tubes were centrifuged at 800 rpm for 5 min to pellet down red blood cells. After centrifugation, 200 µL of supernatant were transferred into a 96 well plate and the absorbance was recorded at 576 nm using a microplate reader (MultiSkan Go, ThermoScientific). Then, the following formula was applied to calculate percent hemolysis: % Hemolysis=O.D of test sample−O.D of PBS control/O.D of Tritox×positive control−O.D of PBS control×100

S. aureus (NCTC 13277) = conditions: >99% inhibition of growth, MH broth, 20-22 h, 37 °C
[5] = Circular dichroism secondary structure analysis (Bestsel) in 20 mM SDS; format: physicochemical; conditions: CD, 15 µM peptide in 20 mM SDS, 22 °C
Description: The far-ultraviolet circular dichroism (CD) spectra were recorded using a JASCO J-810 spectropolarimeter (Jasco, Tokyo, Japan), with measurements taken in a quartz cuvette with a 10 mm path length. The temperature was kept at 22 °C, and the instrument was calibrated with D-(+)-10-camphorsulfonic acid. Peptides were dissolved in 20 mM SDS to a final concentration of 15 µM. The CD spectra were collected over a wavelength range of 190 to 260 nm with a bandwidth of 2 nm. Each spectrum was recorded with ten consecutive scans at a rate of 50 nm/min, and the baseline was obtained under identical conditions. Secondary structures, i.e., the percentage of alpha-helix and other secondary structures, were quantified from CD data using Bestsel software (https://bestsel.elte.hu/index.php, accessed on 22 October 2024).

[6] = >99% inhibition of yeast growth, SDB, 24 h, 37 °C
[7] = MTT, 24 h exposure, read-out: IC50 on Breast Cancer (MCF-7)
[8] = >99% inhibition of growth, MH broth, 20-22 h, 37 °C

| Structure (SMILES) | MIC (B. subtilis (ATCC 23857)) [µM] | MIC (E. coli (ATCC 25922)) [µM] | MIC [1] [µM] | MIC C. albicans (ATCC 36082) (C. albicans (ATCC 36082); [6]) [µM] | IC50 ([2]; 24 h) [µM] | IC50 [3] [µM] | HC50 on Human Red Blood Cells (RBCs) ([4]; red cells of human, 1 h) [µM] | MIC S. aureus (NCTC 13277) (S. aureus (NCTC 13277)) [µM] | MIC S. typhi (ATCC 14028) (S. typhi (ATCC 14028); ATCC 14028) [µM] | MIC C. albicans (ATCC 36082) (C. albicans (ATCC 36082); ATCC 36082, 24 h) [µM] | IC50 [2, 7] [µM] | Antiparallel (%) [5] [%] | Helix (%) [5] [%] | Others (%) [5] [%] | Parallel (%) [5] [%] | Turn (%) [5] [%] | MIC S. typhi (ATCC 14028) (S. typhi (ATCC 14028); [8]) [µM] | HC50 on Human Red Blood Cells (RBCs) [4] [µM] |
| --- | --- | --- | --- | --- | --- | --- | --- | --- | --- | --- | --- | --- | --- | --- | --- | --- | --- | --- |
| CC[C@H](C)[C@H](NC(=O)[C@@H](NC(=O)CNC(=O)[C@H](CCSC)NC(=O)[C@H](CC(C)C)NC(=O)CNC(=O)[C@H](CCCCN)NC(=O)[C@H](CC(C)C)NC(=O)[C@H](Cc1ccccc1)NC(=O)CCNC(=O)c1cn2c3c(c(N4CCN(C)CC4)c(F)cc3c1=O)OC[C@@H]2C)C(C)C)C(=O)N[C@H](C)C(=O)N[C@@H](CO)C(=O)N[C@@H](CC(C)C)C(=O)N[C@@H](Cc1ccccc1)C(=O)N[C@@H](CCCCN)C(N)=O [RLFP-3 (6), LF-β-Ala-Phe^1-Leu^2-Lys^3-Gly^4-Leu^5-Met^6-Gly^7-Val^8-Ile^9-D-Ala^10-Ser^11-Leu^12-Phe^13-Lys^14-NH2] ({Levofloxacinoyl-βAla}-FLKGLMGVI[dA]SLFK-NH2) | 1.56 (≈ 3.02 µg/mL) | 25 (≈ 48.4 µg/mL) | 12.5 (≈ 24.2 µg/mL) | 3.12 (≈ 6.04 µg/mL) | 13.3 | 12.1 | 6.6 | 12.5 (≈ 24.2 µg/mL) | 3.12 (≈ 6.04 µg/mL) |  |  |  |  |  |  |  |  |  |
| CC[C@H](C)[C@H](NC(=O)[C@@H](NC(=O)CNC(=O)[C@H](CCSC)NC(=O)[C@H](CC(C)C)NC(=O)[C@H](CCCCN)NC(=O)[C@H](CCCCN)NC(=O)[C@H](CC(C)C)NC(=O)[C@H](Cc1ccccc1)NC(=O)CCNC(=O)c1cn2c3c(c(N4CCN(C)CC4)c(F)cc3c1=O)OC[C@@H]2C)C(C)C)C(=O)N[C@H](C)C(=O)N[C@@H](CO)C(=O)N[C@@H](CC(C)C)C(=O)N[C@@H](Cc1ccccc1)C(N)=O [RLFP-4 (8), LF-β-Ala-Phe^1-Leu^2-Lys^3-Lys^4-Leu^5-Met^6-Gly^7-Val^8-Ile^9-D-Ala^10-Ser^11-Leu^12-Phe^13-NH2] ({Levofloxacinoyl-βAla}-FLKKLMGVI[dA]SLF-NH2) | 1.56 (≈ 2.93 µg/mL) | 25 (≈ 47 µg/mL) | 12.5 (≈ 23.5 µg/mL) |  | 23.8 | 15.5 | 4.5 | 6.25 (≈ 11.8 µg/mL) | 50 (≈ 94 µg/mL) | >200 |  |  |  |  |  |  |  |  |
| CC[C@H](C)[C@H](NC(=O)[C@@H](NC(=O)CNC(=O)[C@H](CCSC)NC(=O)[C@H](CC(C)C)NC(=O)CNC(=O)[C@H](CCCCN)NC(=O)[C@H](CC(C)C)NC(=O)[C@@H](N)Cc1ccccc1)C(C)C)C(=O)N[C@H](C)C(=O)N[C@@H](CO)C(=O)N[C@@H](CC(C)C)C(=O)N[C@@H](Cc1ccccc1)C(N)=O [RNST-2 (2), H-Phe^1-Leu^2-Lys^3-Gly^4-Leu^5-Met^6-Gly^7-Val^8-Ile^9-D-Ala^10-Ser^11-Leu^12-Phe^13-NH2] (H-FLKGLMGVI[dA]SLF-NH2) | 1.56 (≈ 2.18 µg/mL) | 50 (≈ 69.7 µg/mL) | 200 (≈ 279 µg/mL) | 15.6 (≈ 21.8 µg/mL) |  | 60 | 13.8 | 3.12 (≈ 4.35 µg/mL) |  |  | 53 | 17.9 | 62 | 0.00 | 20.1 | 0.00 | 50 (≈ 69.7 µg/mL) |  |
| CC[C@H](C)[C@H](NC(=O)[C@@H](NC(=O)CNC(=O)[C@H](CCSC)NC(=O)[C@H](CC(C)C)NC(=O)[C@H](CCCCN)NC(=O)[C@H](CCCCN)NC(=O)[C@H](CC(C)C)NC(=O)[C@@H](N)Cc1ccccc1)C(C)C)C(=O)N[C@H](C)C(=O)N[C@@H](CO)C(=O)N[C@@H](CC(C)C)C(=O)N[C@@H](Cc1ccccc1)C(N)=O [RSP-4 (7), H-Phe^1-Leu^2-Lys^3-Lys^4-Leu^5-Met^6-Gly^7-Val^8-Ile^9-D-Ala^10-Ser^11-Leu^12-Phe^13-NH2] (H-FLKKLMGVI[dA]SLF-NH2) | 12.5 (≈ 18.3 µg/mL) | 50 (≈ 73.3 µg/mL) | 200 (≈ 293 µg/mL) |  |  | 56.9 |  | 50 (≈ 73.3 µg/mL) |  | 100 (≈ 147 µg/mL) | 39.9 | 22.1 | 56.8 | 13.6 | 0.00 | 7.6 | 100 (≈ 147 µg/mL) | > 100 |
